Measurements: patent US9936701B2, “Herbicidal compounds” (Syngenta Participations AG, priority 2013, dated 2018)

Tested on: a variety of test species
Test: Post-emergence herbicidal activity (glasshouse, sprayed after 8 days cultivation, evaluated after 13 days)
Format: in vivo
Design: key: 5=total damage to plant; 0=no damage to plant
Conditions: Abutilon theophrasti, rate 1000 g/Ha, scale 0-5
Description: (§1) Seeds of a variety of test species were sown in standard soil in pots. After 8 days cultivation (post-emergence) under controlled conditions in a glasshouse (at 24/16° C., day/night; 14 hours light; 65% humidity), the plants were sprayed with an aqueous spray solution derived from the formulation of the technical active ingredient in acetone/water (50:50) solution containing 0.5% Tween 20 (polyoxyethelyene sorbitan monolaurate, CAS RN 9005-64-5). The test plants were then grown in a glasshouse under controlled conditions (at 24/16° C., day/night; 14 hours light; 65% humidity) and watered twice daily. After 13 days, the test was evaluated (5=total damage to plant; 0=no damage to plant).

| SMILES | ABUTH (Abutilon theophrasti) damage score, application post-emergence |
| --- | --- |
| CCSC(=O)OC1C(C)=C(Cl)C(=O)N1c1cc(C(C)(C)C)on1 (stereo not drawn) [A78] | 5 |
| COC(=O)OC1C(C)=C(Cl)C(=O)N1c1cc(C(C)(C)C)on1 (stereo not drawn) [A81] | 5 |
| C=COC(=O)OC1C(C)=C(Cl)C(=O)N1c1cc(C(C)(C)C)on1 (stereo not drawn) [A83] | 5 |
| CC#CCOC(=O)OC1C(C)=C(Cl)C(=O)N1c1cc(C(C)(C)C)on1 (stereo not drawn) [A85] | 5 |
| COc1ccc(OC(=O)OC2C(C)=C(Cl)C(=O)N2c2cc(C(C)(C)C)on2)cc1 (stereo not drawn) [A86] | 2 |

Same assay, conditions: Alopecurus myosuroides, rate 1000 g/Ha, scale 0-5

| SMILES | ALOMY (Alopecurus myosuroides) damage score, application post-emergence |
| --- | --- |
| CCSC(=O)OC1C(C)=C(Cl)C(=O)N1c1cc(C(C)(C)C)on1 (stereo not drawn) [A78] | 5 |
| COC(=O)OC1C(C)=C(Cl)C(=O)N1c1cc(C(C)(C)C)on1 (stereo not drawn) [A81] | 5 |
| C=COC(=O)OC1C(C)=C(Cl)C(=O)N1c1cc(C(C)(C)C)on1 (stereo not drawn) [A83] | 5 |
| CC#CCOC(=O)OC1C(C)=C(Cl)C(=O)N1c1cc(C(C)(C)C)on1 (stereo not drawn) [A85] | 5 |
| COc1ccc(OC(=O)OC2C(C)=C(Cl)C(=O)N2c2cc(C(C)(C)C)on2)cc1 (stereo not drawn) [A86] | 3 |

Same assay, conditions: Amaranthus retroflexus, rate 1000 g/Ha, scale 0-5

| SMILES | AMARE (Amaranthus retroflexus) damage score, application post-emergence |
| --- | --- |
| CCSC(=O)OC1C(C)=C(Cl)C(=O)N1c1cc(C(C)(C)C)on1 (stereo not drawn) [A78] | 5 |
| COC(=O)OC1C(C)=C(Cl)C(=O)N1c1cc(C(C)(C)C)on1 (stereo not drawn) [A81] | 5 |
| C=COC(=O)OC1C(C)=C(Cl)C(=O)N1c1cc(C(C)(C)C)on1 (stereo not drawn) [A83] | 5 |
| CC#CCOC(=O)OC1C(C)=C(Cl)C(=O)N1c1cc(C(C)(C)C)on1 (stereo not drawn) [A85] | 5 |
| COc1ccc(OC(=O)OC2C(C)=C(Cl)C(=O)N2c2cc(C(C)(C)C)on2)cc1 (stereo not drawn) [A86] | 5 |

Same assay, conditions: Echinochloa crus-galli, rate 1000 g/Ha, scale 0-5

| SMILES | ECHCG (Echinochloa crus-galli) damage score, application post-emergence |
| --- | --- |
| CCSC(=O)OC1C(C)=C(Cl)C(=O)N1c1cc(C(C)(C)C)on1 (stereo not drawn) [A78] | 5 |
| COC(=O)OC1C(C)=C(Cl)C(=O)N1c1cc(C(C)(C)C)on1 (stereo not drawn) [A81] | 5 |
| C=COC(=O)OC1C(C)=C(Cl)C(=O)N1c1cc(C(C)(C)C)on1 (stereo not drawn) [A83] | 5 |
| CC#CCOC(=O)OC1C(C)=C(Cl)C(=O)N1c1cc(C(C)(C)C)on1 (stereo not drawn) [A85] | 5 |
| COc1ccc(OC(=O)OC2C(C)=C(Cl)C(=O)N2c2cc(C(C)(C)C)on2)cc1 (stereo not drawn) [A86] | 2 |

Same assay, conditions: Setaria faberi, rate 1000 g/Ha, scale 0-5

| SMILES | SETFA (Setaria faberi) damage score, application post-emergence |
| --- | --- |
| CCSC(=O)OC1C(C)=C(Cl)C(=O)N1c1cc(C(C)(C)C)on1 (stereo not drawn) [A78] | 5 |
| COC(=O)OC1C(C)=C(Cl)C(=O)N1c1cc(C(C)(C)C)on1 (stereo not drawn) [A81] | 5 |
| C=COC(=O)OC1C(C)=C(Cl)C(=O)N1c1cc(C(C)(C)C)on1 (stereo not drawn) [A83] | 5 |
| CC#CCOC(=O)OC1C(C)=C(Cl)C(=O)N1c1cc(C(C)(C)C)on1 (stereo not drawn) [A85] | 5 |
| COc1ccc(OC(=O)OC2C(C)=C(Cl)C(=O)N2c2cc(C(C)(C)C)on2)cc1 (stereo not drawn) [A86] | 3 |

Same assay, conditions: Zea mays, rate 1000 g/Ha, scale 0-5

| SMILES | ZEAMX (Zea mays) damage score, application post-emergence |
| --- | --- |
| CCSC(=O)OC1C(C)=C(Cl)C(=O)N1c1cc(C(C)(C)C)on1 (stereo not drawn) [A78] | 4 |
| COC(=O)OC1C(C)=C(Cl)C(=O)N1c1cc(C(C)(C)C)on1 (stereo not drawn) [A81] | 4 |
| C=COC(=O)OC1C(C)=C(Cl)C(=O)N1c1cc(C(C)(C)C)on1 (stereo not drawn) [A83] | 4 |
| CC#CCOC(=O)OC1C(C)=C(Cl)C(=O)N1c1cc(C(C)(C)C)on1 (stereo not drawn) [A85] | 4 |
| COc1ccc(OC(=O)OC2C(C)=C(Cl)C(=O)N2c2cc(C(C)(C)C)on2)cc1 (stereo not drawn) [A86] | 0 |

Tested on: a variety of test species
Test: Pre-emergence herbicidal activity (glasshouse, sprayed one day after sowing, evaluated after 13 days)
Format: in vivo
Design: key: 5=total damage to plant; 0=no damage to plant
Conditions: ABUTH, application pre-emergence, rate 1000 g/Ha, scale 0-5
Description: as §1, with “After” for “After 8 days”, “for one day (pre-emergence)” for “(post-emergence)”

| SMILES | Pre-emergence herbicidal damage score, ABUTH |
| --- | --- |
| CCSC(=O)OC1C(C)=C(Cl)C(=O)N1c1cc(C(C)(C)C)on1 (stereo not drawn) [A78] | 5 |
| COC(=O)OC1C(C)=C(Cl)C(=O)N1c1cc(C(C)(C)C)on1 (stereo not drawn) [A81] | 5 |
| C=COC(=O)OC1C(C)=C(Cl)C(=O)N1c1cc(C(C)(C)C)on1 (stereo not drawn) [A83] | 5 |
| CC#CCOC(=O)OC1C(C)=C(Cl)C(=O)N1c1cc(C(C)(C)C)on1 (stereo not drawn) [A85] | 5 |
| COc1ccc(OC(=O)OC2C(C)=C(Cl)C(=O)N2c2cc(C(C)(C)C)on2)cc1 (stereo not drawn) [A86] | 3 |

Same assay, conditions: ALOMY, application pre-emergence, rate 1000 g/Ha, scale 0-5

| SMILES | Pre-emergence herbicidal damage score, ALOMY |
| --- | --- |
| CCSC(=O)OC1C(C)=C(Cl)C(=O)N1c1cc(C(C)(C)C)on1 (stereo not drawn) [A78] | 2 |
| COC(=O)OC1C(C)=C(Cl)C(=O)N1c1cc(C(C)(C)C)on1 (stereo not drawn) [A81] | 4 |
| C=COC(=O)OC1C(C)=C(Cl)C(=O)N1c1cc(C(C)(C)C)on1 (stereo not drawn) [A83] | 4 |
| CC#CCOC(=O)OC1C(C)=C(Cl)C(=O)N1c1cc(C(C)(C)C)on1 (stereo not drawn) [A85] | 4 |
| COc1ccc(OC(=O)OC2C(C)=C(Cl)C(=O)N2c2cc(C(C)(C)C)on2)cc1 (stereo not drawn) [A86] | 3 |

Same assay, conditions: AMARE, application pre-emergence, rate 1000 g/Ha, scale 0-5

| SMILES | Pre-emergence herbicidal damage score, AMARE |
| --- | --- |
| CCSC(=O)OC1C(C)=C(Cl)C(=O)N1c1cc(C(C)(C)C)on1 (stereo not drawn) [A78] | 5 |
| COC(=O)OC1C(C)=C(Cl)C(=O)N1c1cc(C(C)(C)C)on1 (stereo not drawn) [A81] | 5 |
| C=COC(=O)OC1C(C)=C(Cl)C(=O)N1c1cc(C(C)(C)C)on1 (stereo not drawn) [A83] | 5 |
| CC#CCOC(=O)OC1C(C)=C(Cl)C(=O)N1c1cc(C(C)(C)C)on1 (stereo not drawn) [A85] | 5 |
| COc1ccc(OC(=O)OC2C(C)=C(Cl)C(=O)N2c2cc(C(C)(C)C)on2)cc1 (stereo not drawn) [A86] | 5 |

Same assay, conditions: ECHCG, application pre-emergence, rate 1000 g/Ha, scale 0-5

| SMILES | Pre-emergence herbicidal damage score, ECHCG |
| --- | --- |
| CCSC(=O)OC1C(C)=C(Cl)C(=O)N1c1cc(C(C)(C)C)on1 (stereo not drawn) [A78] | 5 |
| COC(=O)OC1C(C)=C(Cl)C(=O)N1c1cc(C(C)(C)C)on1 (stereo not drawn) [A81] | 5 |
| C=COC(=O)OC1C(C)=C(Cl)C(=O)N1c1cc(C(C)(C)C)on1 (stereo not drawn) [A83] | 5 |
| CC#CCOC(=O)OC1C(C)=C(Cl)C(=O)N1c1cc(C(C)(C)C)on1 (stereo not drawn) [A85] | 5 |
| COc1ccc(OC(=O)OC2C(C)=C(Cl)C(=O)N2c2cc(C(C)(C)C)on2)cc1 (stereo not drawn) [A86] | 2 |

Same assay, conditions: SETFA, application pre-emergence, rate 1000 g/Ha, scale 0-5

| SMILES | Pre-emergence herbicidal damage score, SETFA |
| --- | --- |
| CCSC(=O)OC1C(C)=C(Cl)C(=O)N1c1cc(C(C)(C)C)on1 (stereo not drawn) [A78] | 5 |
| COC(=O)OC1C(C)=C(Cl)C(=O)N1c1cc(C(C)(C)C)on1 (stereo not drawn) [A81] | 5 |
| C=COC(=O)OC1C(C)=C(Cl)C(=O)N1c1cc(C(C)(C)C)on1 (stereo not drawn) [A83] | 5 |
| CC#CCOC(=O)OC1C(C)=C(Cl)C(=O)N1c1cc(C(C)(C)C)on1 (stereo not drawn) [A85] | 5 |
| COc1ccc(OC(=O)OC2C(C)=C(Cl)C(=O)N2c2cc(C(C)(C)C)on2)cc1 (stereo not drawn) [A86] | 2 |

Same assay, conditions: ZEAMX, application pre-emergence, rate 1000 g/Ha, scale 0-5

| SMILES | Pre-emergence herbicidal damage score, ZEAMX |
| --- | --- |
| CCSC(=O)OC1C(C)=C(Cl)C(=O)N1c1cc(C(C)(C)C)on1 (stereo not drawn) [A78] | 2 |
| COC(=O)OC1C(C)=C(Cl)C(=O)N1c1cc(C(C)(C)C)on1 (stereo not drawn) [A81] | 3 |
| C=COC(=O)OC1C(C)=C(Cl)C(=O)N1c1cc(C(C)(C)C)on1 (stereo not drawn) [A83] | 4 |
| CC#CCOC(=O)OC1C(C)=C(Cl)C(=O)N1c1cc(C(C)(C)C)on1 (stereo not drawn) [A85] | 3 |
| COc1ccc(OC(=O)OC2C(C)=C(Cl)C(=O)N2c2cc(C(C)(C)C)on2)cc1 (stereo not drawn) [A86] | 1 |
